Assay results from US11390626B2, “Pyrazolopyrimidine modulators of RAS GTPase” (Tosk, Inc., priority 2019, dated 2022).
Values joined by “and” are separate entries in the source; they are usually repeats but may differ in a detail not shown here. Identical values can stand only once. “Also recorded” adds a separate entry of the source. Like-named read-outs stand apart in the source and are kept apart here. One block for each compound: values may come before it.

Experiments:
[1] = tested on: non-phosphorylated AKT; assay: Non-phosphorylated AKT western blot in SW1990 cells; type: cell-based, human; conditions: data not shown
Procedure: (§1) Structure 1 decreased both phosphorylated AKT and phosphorylated ERK. Structure 1 had no effect on AKT or ERK (data not shown).
(§2) A method used to measure ERK and AKT is based on Welsch et al, Cell 168: 878-889 February 2017. SW1990 cells, growth driven by a G12D kRAS mutation and derived from human, pancreatic cancer cells, are plated in a 6-well plate at 1.5×10^6 cells per plate and grown overnight at 37° C. Media is replaced with serum-free media and the plate incubated an additional 24 hours. Media is replaced with media with or without compound and incubated for an additional 24 hours. EGF is added at a concentration of 10 ng/mL. After 15 minutes, cells are washed with ice cold PBS and lysed with RIPA buffer.
(§3) The lysate is processed by electrophoresis using a Mini-PROTEAN® gel mounted in a Mini-PROTEAN® Tetra Cell (cassette). Both the gel and the holding assembly (cassette) are purchased from BIORAD. The gel in the assembly is placed, electrode up, in the buffer tanks. The Tris/glycine/SDS buffer is added to both the inner buffer chamber (200 mL) and the outer buffer chamber (800 mL). […]
(§4) The membrane is placed into TTBS buffer containing SuperBlock T20 (Thermo Scientific) and incubated for 1 hour at room temperature. […] The anti pERK detected both pERK 1 and 2 (T202/Y204). […]

[2] = tested on: SW620 human cancer cells (G12V kRAS); assay: Cytotoxicity assay (CellTiter-Glo 2.0, 72 hours); type: cell-based
Procedure: FIG. 1, Cytotoxicity of exemplary compound (Structure 1) on SW620 human cancer cells. The cytotoxicity of compounds of interest are tested against the human colon cancer cell line SW620 as described in the experimental section. SW620 cells express a mutant G12V kRAS. Compounds are incubated with cells for 72 hours and the assay developed using Cell Titer Glo 2.0. IC50 values are determined using GraphPad Prism4.
Structure 1 was assayed for inhibition of cell proliferation and killing cancer cells. Cytotoxicity assays were conducted according to the following general procedure. SW620, SW1990, etc, were all maintained in Leibowitz L15 media supplemented with 10% fetal bovine serum and 1% PenStrep and grown in a 37° C. incubator without supplemental CO2. Cells were plated into 96 well flat bottom plates (2 million/plate, ˜20,000/well, 200 μLmedia/well). The cells were allowed to settle and adhere to plate bottom overnight.
Compounds were diluted in media from a 10 mM stock solution starting at 50 μM, using 2-fold dilutions, in a column in a 96-well plate. Media was removed from the plate containing cells and replaced with media containing diluted compounds. Plates were incubated 72 hours at 37° C. with no supplementary CO2. […] Luminescence was read with a FLx800 (BioTek Instruments). […]

[3] = tested on: non-phosphorylated ERK; assay: Non-phosphorylated ERK western blot in SW1990 cells; type: cell-based, human; conditions: data not shown
Procedure: as §1, §2, §3, §4

[4] = tested on: Drosophila melanogaster flies with human G12V kRAS expressed in the wing; assay: Fly screen: reversal of crinkled wing phenotype; type: in vivo
From the text: The Tosk approach uses Drosophila melanogaster flies as media for initial screening for RAS modulating compounds. Tosk has created a fruit fly with human kRAS G12V expressed in its wing. The mutant kRAS expressed in the fly wing appears functional, even though it operates in the presence of the other physiological systems present in the fly. The fly phenotype in the mutant fly is a crimped wing which can be reversed to a great extent if the fly is fed food enriched with an effective kRAS inhibitor. The fly kRAS suppressor screen can provide a more predictive model compared to conventional discovery methods because the kRAS is in its natural (i.e., not artificial/isolated/manipulated) environment anchored to the plasma membrane, positioned correctly, and surrounded by appropriate neighboring chemicals. Several reports have emphasized the importance of kRAS positioning and environment to realize protein activity.
2. Fly with Crinkled Wing Phenotype.
1. Production of Fly Food/Test Article Mix. A Biomek 2000 robotic arm is used to pipet 40 μL of a 10 mM DMSO solution of Test Article into a 35 mL polypropylene Drosophila fly vial (VWR 89092-728) containing 10 mL ETOH. A half teaspoon blue fly food (4-24, Carolina Biological Supply), is added and the tubes are vortexed and placed into a HT-4X GeneVac to remove the DMSO and ETOH. The tube is vortexed, 4 ml water added, and vortexed again. Control samples are tubes with fly food prepared with just 40 μL DMSO, no Test Article, or 40 μL of a DMSO solution containing 50 μM of the trametanib positive control. 2. Screen. Several hundred male G12V kRAS flies and several hundred GAL4 females are placed in a custom Plexiglas population cage (12″×12″×8″) made fly condo containing grape agar and yeast paste prepared using a published protocol. Embryos from the container are washed off the grape agar onto a sieve and re-suspended in an aqueous sucrose/salt/triton solution. An aliquot of this solution is analyzed using a dissecting microscope to determine the embryo concentration. The appropriate solution to deliver 150 embryos is then added to the fly food/Test article vials. The vial is capped with a cellulose fly bottle plug. […] The vials are incubated at 23° C. in a temperature-controlled room for 12 days. 3. Analysis. After 12 days, all flies in a vial are observed under a microscope following CO2 anesthesia for the number of phenotype reversals compared to the total number of viable flies. Cell culture testing is typically performed for any Test Article showing evidence of >25% phenotype reversal. The trametinib positive control provides reversal of the crimped/crinkled phenotype for 50-75% of the flies.
A library of over 16,000 distinct chemicals was purchased from ChemDiv, San Diego, Calif. All the compounds were evaluated in the fly screen described above for the ability to reverse the crinkled wing phenotype. […] One of the three compounds was Structure 1.

[5] = tested on: phosphorylated AKT; assay: Phosphorylated AKT western blot in SW1990 cells; type: cell-based, human; conditions: 24 hours with compound, EGF 10 ng/mL 15 minutes, FIG. 2
Procedure: as §1, §2, §3, §4

[6] = tested on: phosphorylated ERK; assay: Phosphorylated ERK western blot in SW1990 cells; type: cell-based, human; conditions: 24 hours with compound, EGF 10 ng/mL 15 minutes, FIG. 2
Procedure: as §1, §2, §3, §4

[7] = biological target: EGF-R (L858R mutation) (Homo sapiens, UniProt P00533, L858R); assay: Protein kinase inhibition; type: biochemical; conditions: tested at 3 μM
Procedure: (§5) The exemplary compound was also tested at 3 μM for protein kinase inhibition against the following protein kinases: AKT1, AKT2, AKT3, EGF-R, EGF-R (L858R mutation), FRAP1, GSK3B, MAPK1 (ERK2), MAPK3 (ERK1), BRAF, BRAF V599E, MAP2K1 (MEK1), MAP2K2 (MEK2), PDK1, RAF1, PI3K C2A, PI3K C2B, P13K C3, PI3K 3A, PI3K CB, PI3K CD, and PI3K CG. […] The main downstream targets for kRAS are ERK (Samatar et al., Targeting RAS-ERK signaling in cancer: promises and challenges. Nat Rev Drug Discov. 2014; 13:928-42 and Martini et al., Ann Med. 2014; 46:372-83). kRAS activates ERK and AKT leading to phosphorylated ERK and phosphorylated AKT. A compound that suppresses kRAS activity is expected to lower phosphorylated ERK and phosphorylated AKT.

[8] = biological target: GSK3B (Homo sapiens, UniProt P49841); assay: Protein kinase inhibition; type: biochemical; conditions: tested at 3 μM
Procedure: as §5

[9] = biological target: PI3K 3A (Homo sapiens, UniProt P42336); assay: Protein kinase inhibition; type: biochemical; conditions: tested at 3 μM
Procedure: as §5

[10] = biological target: PI3K C2B (Homo sapiens, UniProt O00750); assay: Protein kinase inhibition; type: biochemical; conditions: tested at 3 μM
Procedure: as §5

[11] = biological target: MAPK1 (ERK2) (Homo sapiens, UniProt P28482); assay: Protein kinase inhibition; type: biochemical; conditions: tested at 3 μM
Procedure: as §5

[12] = biological target: PDK1 (Homo sapiens, UniProt O15530); assay: Protein kinase inhibition; type: biochemical; conditions: tested at 3 μM
Procedure: as §5

[13] = biological target: PI3K CB (Homo sapiens, UniProt P42338); assay: Protein kinase inhibition; type: biochemical; conditions: tested at 3 μM
Procedure: as §5

[14] = biological target: AKT3 (Homo sapiens, UniProt Q9Y243); assay: Protein kinase inhibition; type: biochemical; conditions: tested at 3 μM
Procedure: as §5

[15] = biological target: PI3K CD (Homo sapiens, UniProt O00329); assay: Protein kinase inhibition; type: biochemical; conditions: tested at 3 μM
Procedure: as §5

[16] = biological target: AKT1 (Homo sapiens, UniProt P31749); assay: Protein kinase inhibition; type: biochemical; conditions: tested at 3 μM
Procedure: as §5

[17] = biological target: AKT2 (Homo sapiens, UniProt P31751); assay: Protein kinase inhibition; type: biochemical; conditions: tested at 3 μM
Procedure: as §5

[18] = biological target: BRAF (Homo sapiens, UniProt P15056); assay: Protein kinase inhibition; type: biochemical; conditions: tested at 3 μM
Procedure: as §5

[19] = biological target: P13K C3 (Homo sapiens, UniProt Q8NEB9); assay: Protein kinase inhibition; type: biochemical; conditions: tested at 3 μM
Procedure: as §5

[20] = biological target: RAF1 (Homo sapiens, UniProt P04049); assay: Protein kinase inhibition; type: biochemical; conditions: tested at 3 μM
Procedure: as §5

[21] = biological target: PI3K CG (Homo sapiens, UniProt P48736); assay: Protein kinase inhibition; type: biochemical; conditions: tested at 3 μM
Procedure: as §5

[22] = biological target: MAP2K2 (MEK2) (Homo sapiens, UniProt P36507); assay: Protein kinase inhibition; type: biochemical; conditions: tested at 3 μM
Procedure: as §5

[23] = biological target: EGF-R (Homo sapiens, UniProt P00533); assay: Protein kinase inhibition; type: biochemical; conditions: tested at 3 μM
Procedure: as §5

[24] = biological target: MAP2K1 (MEK1) (Homo sapiens, UniProt Q02750); assay: Protein kinase inhibition; type: biochemical; conditions: tested at 3 μM
Procedure: as §5

[25] = biological target: PI3K C2A (Homo sapiens, UniProt O00443); assay: Protein kinase inhibition; type: biochemical; conditions: tested at 3 μM
Procedure: as §5

[26] = biological target: BRAF V599E (Homo sapiens, UniProt P15056, V600E); assay: Protein kinase inhibition; type: biochemical; conditions: tested at 3 μM
Procedure: as §5

[27] = biological target: MAPK3 (ERK1) (Homo sapiens, UniProt P27361); assay: Protein kinase inhibition; type: biochemical; conditions: tested at 3 μM
Procedure: as §5

[28] = biological target: FRAP1 (Homo sapiens, UniProt P42345); assay: Protein kinase inhibition; type: biochemical; conditions: tested at 3 μM
Procedure: as §5

Chain of PI3K 3A (P42336 whole entry): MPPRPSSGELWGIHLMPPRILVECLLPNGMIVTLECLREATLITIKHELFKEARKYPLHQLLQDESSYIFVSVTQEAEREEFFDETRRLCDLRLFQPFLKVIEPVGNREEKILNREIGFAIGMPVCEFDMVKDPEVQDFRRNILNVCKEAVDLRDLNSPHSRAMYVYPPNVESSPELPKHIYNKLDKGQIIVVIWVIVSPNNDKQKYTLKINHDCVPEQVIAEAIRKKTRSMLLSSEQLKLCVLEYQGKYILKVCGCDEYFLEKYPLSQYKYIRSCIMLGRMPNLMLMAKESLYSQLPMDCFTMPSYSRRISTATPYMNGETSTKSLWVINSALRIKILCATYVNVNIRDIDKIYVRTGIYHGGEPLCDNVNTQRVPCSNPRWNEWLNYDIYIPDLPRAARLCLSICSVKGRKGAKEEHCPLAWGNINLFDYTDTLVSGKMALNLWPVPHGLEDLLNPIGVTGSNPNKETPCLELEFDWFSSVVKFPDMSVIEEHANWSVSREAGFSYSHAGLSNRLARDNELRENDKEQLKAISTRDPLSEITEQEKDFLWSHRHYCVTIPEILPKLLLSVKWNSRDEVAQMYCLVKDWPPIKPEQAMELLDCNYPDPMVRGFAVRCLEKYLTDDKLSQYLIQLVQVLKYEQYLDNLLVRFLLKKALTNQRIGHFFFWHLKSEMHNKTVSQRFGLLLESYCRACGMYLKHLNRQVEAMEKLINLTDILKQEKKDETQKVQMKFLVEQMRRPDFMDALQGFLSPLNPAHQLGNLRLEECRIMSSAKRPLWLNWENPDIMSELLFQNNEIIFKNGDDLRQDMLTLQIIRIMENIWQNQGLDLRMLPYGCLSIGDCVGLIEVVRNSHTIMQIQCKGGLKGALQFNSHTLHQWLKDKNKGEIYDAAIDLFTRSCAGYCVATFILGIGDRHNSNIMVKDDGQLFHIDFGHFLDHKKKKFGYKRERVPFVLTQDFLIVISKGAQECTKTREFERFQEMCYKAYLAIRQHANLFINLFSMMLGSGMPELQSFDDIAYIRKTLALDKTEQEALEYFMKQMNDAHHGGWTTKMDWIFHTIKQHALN
Chain of PI3K 3A (P27986 whole entry partner): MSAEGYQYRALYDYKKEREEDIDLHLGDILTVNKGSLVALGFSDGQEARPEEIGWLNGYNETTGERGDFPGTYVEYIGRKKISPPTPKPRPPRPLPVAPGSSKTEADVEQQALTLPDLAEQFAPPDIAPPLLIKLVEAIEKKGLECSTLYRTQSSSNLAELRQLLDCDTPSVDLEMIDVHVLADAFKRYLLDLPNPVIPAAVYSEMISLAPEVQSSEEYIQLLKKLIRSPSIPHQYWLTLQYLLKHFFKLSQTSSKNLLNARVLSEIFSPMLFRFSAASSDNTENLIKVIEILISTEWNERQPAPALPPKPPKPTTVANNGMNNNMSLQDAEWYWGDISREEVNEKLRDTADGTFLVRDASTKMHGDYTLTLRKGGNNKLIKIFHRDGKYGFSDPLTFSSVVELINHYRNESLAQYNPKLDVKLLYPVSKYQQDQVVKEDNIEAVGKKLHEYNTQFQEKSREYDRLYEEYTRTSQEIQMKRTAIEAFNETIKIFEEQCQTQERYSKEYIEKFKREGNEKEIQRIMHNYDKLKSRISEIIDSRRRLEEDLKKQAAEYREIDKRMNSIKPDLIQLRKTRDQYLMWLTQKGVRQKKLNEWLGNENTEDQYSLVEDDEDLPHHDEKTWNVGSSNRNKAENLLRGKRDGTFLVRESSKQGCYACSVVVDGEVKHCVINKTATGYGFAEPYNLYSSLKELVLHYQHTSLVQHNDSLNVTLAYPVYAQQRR
Chain of PI3K CB (P42338 whole entry): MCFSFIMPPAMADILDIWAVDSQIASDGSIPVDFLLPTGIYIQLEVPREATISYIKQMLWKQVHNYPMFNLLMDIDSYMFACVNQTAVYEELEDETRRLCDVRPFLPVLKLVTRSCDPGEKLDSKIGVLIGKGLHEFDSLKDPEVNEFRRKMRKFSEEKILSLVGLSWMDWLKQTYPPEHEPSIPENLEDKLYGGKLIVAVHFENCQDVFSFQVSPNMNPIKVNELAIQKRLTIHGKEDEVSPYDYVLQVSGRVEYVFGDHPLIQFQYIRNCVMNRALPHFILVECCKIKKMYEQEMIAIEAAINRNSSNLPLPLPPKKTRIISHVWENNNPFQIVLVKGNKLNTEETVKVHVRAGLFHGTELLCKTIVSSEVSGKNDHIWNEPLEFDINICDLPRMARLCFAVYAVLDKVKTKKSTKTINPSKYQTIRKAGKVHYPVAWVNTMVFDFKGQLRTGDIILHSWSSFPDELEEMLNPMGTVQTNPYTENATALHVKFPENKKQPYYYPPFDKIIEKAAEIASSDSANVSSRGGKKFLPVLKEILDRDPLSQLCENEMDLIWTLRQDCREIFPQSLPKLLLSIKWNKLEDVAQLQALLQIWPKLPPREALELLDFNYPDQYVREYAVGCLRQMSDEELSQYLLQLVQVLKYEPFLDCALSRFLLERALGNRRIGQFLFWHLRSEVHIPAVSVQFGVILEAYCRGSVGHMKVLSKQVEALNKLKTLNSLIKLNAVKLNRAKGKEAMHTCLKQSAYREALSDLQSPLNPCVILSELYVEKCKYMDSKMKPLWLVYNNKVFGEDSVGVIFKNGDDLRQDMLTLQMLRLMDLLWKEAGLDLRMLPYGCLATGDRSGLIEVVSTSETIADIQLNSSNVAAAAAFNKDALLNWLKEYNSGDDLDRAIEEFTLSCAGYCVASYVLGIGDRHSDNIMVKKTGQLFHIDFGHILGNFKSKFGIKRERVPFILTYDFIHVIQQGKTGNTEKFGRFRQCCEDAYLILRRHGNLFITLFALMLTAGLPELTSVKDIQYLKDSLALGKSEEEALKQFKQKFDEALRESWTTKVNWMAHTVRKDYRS
Chain of PI3K CB (P27986 whole entry partner): as the sequence (P27986 whole entry partner) above
Chain of PI3K C2A (O00443 whole entry): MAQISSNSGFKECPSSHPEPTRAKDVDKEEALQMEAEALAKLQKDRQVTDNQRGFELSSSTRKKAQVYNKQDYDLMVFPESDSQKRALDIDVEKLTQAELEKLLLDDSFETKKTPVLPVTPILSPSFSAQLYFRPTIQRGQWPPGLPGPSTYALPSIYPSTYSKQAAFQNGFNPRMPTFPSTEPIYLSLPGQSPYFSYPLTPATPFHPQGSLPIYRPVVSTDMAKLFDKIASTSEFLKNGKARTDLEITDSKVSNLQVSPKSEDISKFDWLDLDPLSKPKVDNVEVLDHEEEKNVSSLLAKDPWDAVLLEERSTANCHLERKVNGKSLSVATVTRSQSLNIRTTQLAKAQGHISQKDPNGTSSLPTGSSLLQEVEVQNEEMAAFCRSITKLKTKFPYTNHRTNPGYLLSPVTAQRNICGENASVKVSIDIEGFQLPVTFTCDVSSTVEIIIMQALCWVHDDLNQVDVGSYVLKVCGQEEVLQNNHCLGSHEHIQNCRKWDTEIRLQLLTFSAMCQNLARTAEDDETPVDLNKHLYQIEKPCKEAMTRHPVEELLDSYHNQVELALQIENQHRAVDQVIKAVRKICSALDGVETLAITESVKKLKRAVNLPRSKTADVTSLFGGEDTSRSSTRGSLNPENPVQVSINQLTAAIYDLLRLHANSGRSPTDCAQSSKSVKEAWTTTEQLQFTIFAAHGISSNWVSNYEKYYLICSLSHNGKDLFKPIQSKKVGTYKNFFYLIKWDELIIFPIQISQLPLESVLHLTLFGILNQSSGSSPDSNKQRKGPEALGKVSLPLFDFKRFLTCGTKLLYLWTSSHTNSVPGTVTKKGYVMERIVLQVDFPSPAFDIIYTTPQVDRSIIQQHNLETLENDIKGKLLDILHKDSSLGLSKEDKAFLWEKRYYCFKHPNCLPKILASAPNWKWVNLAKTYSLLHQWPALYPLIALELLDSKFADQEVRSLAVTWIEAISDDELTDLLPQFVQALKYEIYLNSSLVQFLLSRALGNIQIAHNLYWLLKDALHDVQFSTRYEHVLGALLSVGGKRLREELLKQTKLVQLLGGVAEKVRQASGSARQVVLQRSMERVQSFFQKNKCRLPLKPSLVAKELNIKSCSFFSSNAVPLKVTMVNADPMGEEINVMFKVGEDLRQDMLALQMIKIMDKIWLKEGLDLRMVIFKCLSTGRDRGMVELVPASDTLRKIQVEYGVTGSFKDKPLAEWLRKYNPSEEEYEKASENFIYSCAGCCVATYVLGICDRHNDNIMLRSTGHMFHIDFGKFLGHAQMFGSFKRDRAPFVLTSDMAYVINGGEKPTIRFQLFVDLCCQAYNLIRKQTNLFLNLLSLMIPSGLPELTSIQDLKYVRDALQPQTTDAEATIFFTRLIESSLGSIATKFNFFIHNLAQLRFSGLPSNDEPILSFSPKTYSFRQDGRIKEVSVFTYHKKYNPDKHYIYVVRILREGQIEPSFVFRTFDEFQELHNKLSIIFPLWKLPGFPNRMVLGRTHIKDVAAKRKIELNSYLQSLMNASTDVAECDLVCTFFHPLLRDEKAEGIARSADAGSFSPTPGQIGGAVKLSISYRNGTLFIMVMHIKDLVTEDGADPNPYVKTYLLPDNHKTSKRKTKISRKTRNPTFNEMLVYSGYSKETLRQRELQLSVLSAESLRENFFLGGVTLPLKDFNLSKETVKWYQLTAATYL
Chain of MAPK3 (ERK1) (P27361 whole entry, species assumed): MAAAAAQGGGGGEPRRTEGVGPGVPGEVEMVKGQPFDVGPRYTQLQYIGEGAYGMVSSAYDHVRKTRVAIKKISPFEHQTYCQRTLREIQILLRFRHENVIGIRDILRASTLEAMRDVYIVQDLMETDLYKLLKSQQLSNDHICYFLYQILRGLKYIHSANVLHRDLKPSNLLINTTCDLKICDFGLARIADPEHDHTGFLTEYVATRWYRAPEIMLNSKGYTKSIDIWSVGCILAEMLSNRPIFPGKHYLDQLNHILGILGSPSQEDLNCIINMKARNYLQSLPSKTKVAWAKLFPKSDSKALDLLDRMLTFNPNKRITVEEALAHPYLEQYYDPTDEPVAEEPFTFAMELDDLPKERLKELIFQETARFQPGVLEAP

Kinase inhibitory activity, EGF-R (L858R mutation) [7]: No kinase inhibitory activity | Kinase inhibitory activity, GSK3B [8]: No kinase inhibitory activity | Kinase inhibitory activity, PI3K 3A [9]: No kinase inhibitory activity | Kinase inhibitory activity, PI3K C2B [10]: No kinase inhibitory activity | Kinase inhibitory activity, MAPK1 (ERK2) [11]: No kinase inhibitory activity | Kinase inhibitory activity, PDK1 [12]: No kinase inhibitory activity | Kinase inhibitory activity, PI3K CB [13]: No kinase inhibitory activity | Kinase inhibitory activity, AKT3 [14]: No kinase inhibitory activity | Kinase inhibitory activity, PI3K CD [15]: No kinase inhibitory activity | Kinase inhibitory activity, AKT1 [16]: No kinase inhibitory activity | Kinase inhibitory activity, AKT2 [17]: No kinase inhibitory activity | Kinase inhibitory activity, BRAF [18]: No kinase inhibitory activity | Kinase inhibitory activity, P13K C3 [19]: No kinase inhibitory activity | Kinase inhibitory activity, RAF1 [20]: No kinase inhibitory activity | Kinase inhibitory activity, PI3K CG [21]: No kinase inhibitory activity | Kinase inhibitory activity, MAP2K2 (MEK2) [22]: No kinase inhibitory activity | Kinase inhibitory activity, EGF-R [23]: No kinase inhibitory activity | Kinase inhibitory activity, MAP2K1 (MEK1) [24]: No kinase inhibitory activity | Kinase inhibitory activity, PI3K C2A [25]: No kinase inhibitory activity | Kinase inhibitory activity, BRAF V599E [26]: No kinase inhibitory activity | Kinase inhibitory activity, MAPK3 (ERK1) [27]: No kinase inhibitory activity | Kinase inhibitory activity, FRAP1 [28]: No kinase inhibitory activity
SMILES: Cc1nc2c(-c3ccccc3)c(C)nn2c(NCc2ccccn2)c1Cc1ccccc1 [Structure 1]
Effect on non-phosphorylated AKT [1]: no effect; also recorded: without affecting | IC50 ([2]; SW-620, Cell Titer Glo 2.0, read-out: IC50, cytotoxicity on SW620 human cancer cells (FIG. 1 legend)): 3.9 µM | IC50 ([2]; SW-620, CellTiter-Glo 2.0, read-out: IC50 in the SW620 cells): 3.9 µM | Effect on non-phosphorylated ERK [3]: no effect; also recorded: without affecting | Flies with Reversed Phenotype ([4]; Experiment 1, 20 μM in fly food): 75% | Flies with phenotype reversals relative to positive control trametinib ([4]; Experiment 1, 75% versus 29%): over 2.5 fold | Flies with Reversed Phenotype ([4]; Experiment 2, 20 μM in fly food): 58% | Ability to reverse the crinkled wing phenotype in library screen ([4]; screen of over 16,000 ChemDiv compounds, ~100 μM in fly food, 12 days): reliably reversed the phenotype | Effect on phosphorylated AKT [5]: decreased; also recorded: suppressed | Effect on phosphorylated ERK [6]: decreased; also recorded: suppressed

SMILES: CC(=O)Nc1cccc(-n2c(=O)n(C3CC3)c(=O)c3c(Nc4ccc(I)cc4F)n(C)c(=O)c(C)c32)c1 [Trametinib]
Reversal of the crimped/crinkled phenotype, share of the flies (positive control, general) ([4]; 40 μL of 50 μM DMSO solution in fly food, 12 days): 50-75% | Flies with Reversed Phenotype ([4]; Experiment 1, 0.5 μM in fly food): 29% | Flies with Reversed Phenotype ([4]; Experiment 2, 0.5 μM in fly food): 63% and 64% | Flies with Reversed Phenotype ([4]; Experiment 2, 0.5 μM in fly food, listed as trametinib): 63% and 64%
